# Test results reported in US20190031857A1, “BLACK-COLORED POLYAMIDE COMPOSITION AND PRODUCTION AND USE THEREOF” (BASF SE, priority 2016, published 2019).
# Assays:
# [1] = Solubility of Solvent Black 28 in solvents; assay type: physicochemical
# Description: The chromium complex dye b) used in accordance with the invention is available under the name Solvent Black 28 (CAS no.: 12237-23-9, C.I. Solvent Black 28). A commercially available product is Orasol Black 045 from BASF SE. […] Solubility at 20° C. in ethanol is about 10 g/L and in methyl ethyl ketone about 400 g/L.
# [2] = Incorporation and coloring of the polymer by extrusion; details: attempted bulk coloring of polyethylene, above 160° C.
# Description: 98 parts polyethylene (Grade M80064 from Sabic) were premixed in a tumbling mixer with 2 parts Solvent Black 28 (Orasol Black 045 from BASF) for 10 minutes and extruded in a twin-shaft extruder having a diameter of 18 mm and an L/D ratio of 44 at barrel temperature 210° C. A significant odor developed from the extruder nozzle; the polymer strands had expanded in the foam mold. The production of plaques by means of injection molding machines was not possible.
# 99.9 parts polyamide PA6 (Ultramid B3S from BASF) were premixed in a tumbling mixer with 0.1 part Solvent Violet 13 (Orasol Blue 640 from BASF) for 10 minutes and then extruded and pelletized using a twin-shaft extruder having a diameter of 18 mm and an L/D ratio of 44 at barrel temperature 260° C. For this purpose, the natural-colored polyamide pellets were dried beforehand in a drying oven at 100° C. for 4 hours, such that the moisture content was below 0.1%. For this purpose, the moisture content was determined by means of a thermal balance.
substance,measurement,setting,value
Solvent Black 28,Solubility in ethanol,"[1]; 20° C., ethanol",about 10 g/L
same,Solubility in methyl ethyl ketone,"[1]; 20° C., methyl ethyl ketone",about 400 g/L
same,Water solubility,[1]; water,almost water-insoluble
same,thermal stability in bulk coloring of polyethylene,[2],entirely inadequate thermal stability
